Test results published in ChEMBL document CHEMBL1141030, “Synthesis and biological evaluation of phloridzin analogs as human concentrative nucleoside transporter 3 (hCNT3) inhibitors” (Bioorg Med Chem Lett, 2009).

Tests used:
[1] = biological target: T1, Solute carrier family 28 member 3 (Homo sapiens, UniProt Q9HAS3); test: Binding affinity to human recombinant CNT3 expressed in pig PK15NTD cells assessed as [3H]uridine uptake by beta-scintillation counter; type: cell-based
T1 sequence (Q9HAS3 whole entry): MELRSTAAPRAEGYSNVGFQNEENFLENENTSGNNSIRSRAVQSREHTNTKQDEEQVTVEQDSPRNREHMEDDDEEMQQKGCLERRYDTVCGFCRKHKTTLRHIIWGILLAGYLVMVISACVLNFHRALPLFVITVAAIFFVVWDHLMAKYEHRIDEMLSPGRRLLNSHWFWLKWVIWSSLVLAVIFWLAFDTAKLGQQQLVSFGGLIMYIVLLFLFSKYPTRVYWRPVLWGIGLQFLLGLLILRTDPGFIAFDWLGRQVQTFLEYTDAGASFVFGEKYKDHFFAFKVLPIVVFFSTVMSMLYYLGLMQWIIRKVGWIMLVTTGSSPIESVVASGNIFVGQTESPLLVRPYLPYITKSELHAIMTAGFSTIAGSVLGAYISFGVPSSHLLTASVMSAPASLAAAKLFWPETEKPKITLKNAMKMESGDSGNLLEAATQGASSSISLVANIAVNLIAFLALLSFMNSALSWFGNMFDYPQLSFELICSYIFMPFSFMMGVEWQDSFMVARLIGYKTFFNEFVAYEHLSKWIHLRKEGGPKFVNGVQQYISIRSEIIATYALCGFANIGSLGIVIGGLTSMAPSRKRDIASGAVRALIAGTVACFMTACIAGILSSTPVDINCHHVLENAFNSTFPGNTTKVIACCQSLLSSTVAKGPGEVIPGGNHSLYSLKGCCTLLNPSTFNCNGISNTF

[2] = biological target: T2, Sodium/nucleoside cotransporter 1 (Homo sapiens, UniProt O00337); test: Inhibition of human CNT1
T2 sequence (O00337 whole entry): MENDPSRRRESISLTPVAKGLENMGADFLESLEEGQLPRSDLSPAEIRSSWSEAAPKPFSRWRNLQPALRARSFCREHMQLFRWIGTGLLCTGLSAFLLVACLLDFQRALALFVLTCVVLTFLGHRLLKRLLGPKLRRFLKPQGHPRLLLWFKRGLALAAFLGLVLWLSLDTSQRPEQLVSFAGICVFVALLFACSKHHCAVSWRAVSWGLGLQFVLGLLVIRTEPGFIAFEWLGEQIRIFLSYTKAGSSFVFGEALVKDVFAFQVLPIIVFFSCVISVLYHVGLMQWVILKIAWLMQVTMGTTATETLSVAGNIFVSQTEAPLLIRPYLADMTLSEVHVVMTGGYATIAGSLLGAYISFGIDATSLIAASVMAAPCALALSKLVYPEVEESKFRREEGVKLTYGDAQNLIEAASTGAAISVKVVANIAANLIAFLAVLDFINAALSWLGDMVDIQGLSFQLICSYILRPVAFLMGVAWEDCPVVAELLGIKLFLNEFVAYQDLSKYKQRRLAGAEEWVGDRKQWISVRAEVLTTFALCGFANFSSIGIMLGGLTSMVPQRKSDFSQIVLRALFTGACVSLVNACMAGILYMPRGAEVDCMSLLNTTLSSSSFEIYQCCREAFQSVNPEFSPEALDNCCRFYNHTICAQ

[3] = biological target: T3, Equilibrative nucleoside transporter 1 (Homo sapiens, UniProt Q99808); test: Binding affinity to human ENT1 assessed as [3H]uridine uptake by flow cytometry
T3 sequence (Q99808 whole entry): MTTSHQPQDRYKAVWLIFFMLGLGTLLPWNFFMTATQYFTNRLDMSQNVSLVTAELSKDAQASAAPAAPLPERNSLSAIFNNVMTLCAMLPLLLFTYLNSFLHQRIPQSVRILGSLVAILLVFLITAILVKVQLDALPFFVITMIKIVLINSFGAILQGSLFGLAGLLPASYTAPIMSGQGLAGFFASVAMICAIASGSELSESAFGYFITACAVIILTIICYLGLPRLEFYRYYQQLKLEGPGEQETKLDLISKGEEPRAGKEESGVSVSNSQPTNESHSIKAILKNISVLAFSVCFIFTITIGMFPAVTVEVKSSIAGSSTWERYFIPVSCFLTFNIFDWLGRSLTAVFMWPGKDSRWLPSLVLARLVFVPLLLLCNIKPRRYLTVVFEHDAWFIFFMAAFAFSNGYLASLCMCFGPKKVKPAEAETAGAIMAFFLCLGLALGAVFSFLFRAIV

[4] = biological target: T4, Sodium/nucleoside cotransporter 2 (Homo sapiens, UniProt O43868); test: Inhibition of human CNT2
T4 sequence (O43868 whole entry): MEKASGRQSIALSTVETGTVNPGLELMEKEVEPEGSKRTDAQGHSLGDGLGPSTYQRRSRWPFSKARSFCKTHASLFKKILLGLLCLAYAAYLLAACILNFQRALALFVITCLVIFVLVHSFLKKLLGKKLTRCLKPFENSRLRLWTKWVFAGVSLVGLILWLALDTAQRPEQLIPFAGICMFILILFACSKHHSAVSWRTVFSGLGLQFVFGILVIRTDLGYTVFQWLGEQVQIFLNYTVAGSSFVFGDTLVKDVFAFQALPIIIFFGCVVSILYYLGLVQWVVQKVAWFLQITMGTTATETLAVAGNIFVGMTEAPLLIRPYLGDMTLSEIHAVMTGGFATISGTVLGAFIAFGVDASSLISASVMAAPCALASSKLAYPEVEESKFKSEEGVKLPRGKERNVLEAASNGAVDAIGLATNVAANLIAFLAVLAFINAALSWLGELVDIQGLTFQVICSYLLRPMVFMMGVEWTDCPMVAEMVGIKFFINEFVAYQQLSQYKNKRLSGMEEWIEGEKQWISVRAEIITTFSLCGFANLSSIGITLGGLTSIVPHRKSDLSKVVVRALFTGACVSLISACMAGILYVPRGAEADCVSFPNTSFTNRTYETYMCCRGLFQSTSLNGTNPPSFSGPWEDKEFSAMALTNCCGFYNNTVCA

Ki [1] [µM]	Structure (SMILES)	further results
88	O=[N+]([O-])c1ccc(CSc2ncnc3c2ncn3[C@@H]2O[C@H](CO)[C@@H](O)[C@H]2O)cc1 [NITROBENZYLMERCAPTOPURINE RIBONUCLEOSIDE]	–
> 100	O=C(CCc1ccccc1)c1ccccc1O[C@@H]1O[C@H](CO)[C@@H](O)[C@H]1O	–
> 100	CC(=O)c1ccc(O[C@H]2O[C@H](CO)[C@@H](O)[C@H](O)[C@H]2O)cc1O	–
42.1	CC(=O)c1c(O)cccc1O[C@@H]1O[C@H](CO)[C@@H](O)[C@H]1O	–
> 100	CC(=O)c1ccc(O)cc1O	–
16	O=C(CCc1ccc(O)cc1)c1c(O)cc(O)cc1O[C@@H]1O[C@H](CO)[C@@H](O)[C@H](O)[C@H]1O [PHLORIZIN]	IC50 [2]: 250 µM; Ki [3]: > 1000 µM; IC50 [4]: 100 µM
30	Oc1ccc(CCCc2c(O)cc(O)cc2O)cc1	–
12.4	CC(=O)c1c(O)cc(O)cc1O[C@@H]1O[C@H](CO)[C@@H](O)[C@H]1O	–
> 100	CC(=O)c1cc(O)cc(O[C@H]2O[C@H](CO)[C@@H](O)[C@H](O)[C@H]2O)c1	–
> 100	CC(=O)c1c(O)cccc1O	–
53.9	CC(=O)c1c(O)cccc1O[C@H]1O[C@H](CO)[C@@H](O)[C@H](O)[C@H]1O	–
30.8	CC(=O)c1c(O)cc(O)cc1O[C@H]1O[C@H](CO)[C@@H](O)[C@H](O)[C@H]1O	–
> 100	CC(=O)c1cc(O)cc(O)c1	–
> 100	CC(=O)c1cc(O)cc(O[C@@H]2O[C@H](CO)[C@@H](O)[C@H]2O)c1	–
32.3	O=C(CCc1ccc(O)cc1)c1c(O)cc(O)cc1O [PHLORETIN]	–
12.3	OC[C@H]1O[C@@H](Oc2cc(O)cc(O)c2CCCc2ccc(O)cc2)[C@H](O)[C@@H](O)[C@@H]1O	–
> 100	CC(=O)c1c(O)cc(O)cc1O [2,4,6-TRIHYDROXYACETOPHENONE]	–
2.88	O=C(CCc1ccc(O)cc1)c1c(O)cc(O)cc1O[C@@H]1O[C@H](CO)[C@@H](O)[C@H]1O	Ki [3]: > 1000 µM
> 100	O=C(CCc1ccc(O)cc1)c1c(O)cc(O[C@@H]2O[C@H](CO)[C@@H](O)[C@H](O)[C@H]2O)cc1O	–
